Active and inactive are the calls of the source.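 How the source made its calls: active means compounds giving half or more protection of infected cells from virus-caused growth loss, again on retest; inactive means the rest.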 Where a SMILES comes first, the peptide text is derived from it. [ ]: non-standard residue; d: D form. The star is where a group is joined. ξ: configuration not given here. Bz = O=C(c1ccccc1)*; Bn = c1ccc(C*)cc1; ξC = NC(CS)C(=O)O
System: CEM cells HIV-1 protection, formazan growth assay
Assay: NCI AIDS Antiviral Assay
Details: for IC50: measured here: growth of uninfected CEM cells
Procedure, shortened: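 Human CEM cells, uninfected and HIV-1-infected, received five drug concentrations, and growth was read by soluble formazan assay. Compounds giving at least 50% protection were retested; reproducible 100% protection defined confirmed active.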

SMILES | EC50 | IC50 | outcome
CSC1=C(C(=O)Nc2ccc(Cl)cc2)C(N)=NC1=O | > 100 µM | 74.1 µM | 
O=c1oc(-c2ccccc2NS(=O)(=O)c2ccccc2)nc2cc(Cl)ccc12 | > 200 µM | 1.45 µM | 
CC(=O)Nc1ccc(C(=O)NN2C(=O)CSC2c2ccc([N+](=O)[O-])cc2)cc1 (centres undefined) | > 25.1 µM | > 25.1 µM | 
CSc1scc2c1/C(=N/NC(N)=O)CCC2 | > 200 µM | 91.2 µM | 
CCCCC#C[I+]c1ccccc1 |  |  | inactive
Cn1c(=O)c2c(nc3sc4nc5ccccc5nc4n32)n(C)c1=O | > 200 µM | > 200 µM | 
Nc1ccc2c(SCc3ccc([N+](=O)[O-])cc3)c3ccccc3nc2c1 | > 20 µM | 3.02 µM | 
NS(=O)(=O)c1cc(=O)[nH]c(=O)[nH]1 | > 457 µM | 251 µM | 
C=CC12CCCCC1CC(C(=O)OC)=C(O)C2 (centres undefined) |  |  | inactive
OC(C#CCN1CCCC1)(c1ccccc1)c1ccc(Br)cc1.[C-]#[O+].[C-]#[O+].[C-]#[O+].[C-]#[O+].[C-]#[O+].[C-]#[O+].[Co].[Co] (centres undefined) | > 200 µM | 7.08 µM | 
O=C1C(I)=CC(=C(c2cc(I)c(O)c(I)c2)c2ccccc2C(=O)O)C=C1I |  |  | inactive
Cc1cc(-c2ccccc2)oc(=O)c1NC(=O)c1ccccc1 | > 200 µM | 97.7 µM | 
O=[N+]([O-])c1ccccc1N=Nc1c(O)[nH]c2ccc(S(=O)(=O)O)cc12 | > 200 µM | > 200 µM | 
CSc1nc(N)c2c(-c3ccccc3)c3c(nc2n1)CCCC3 | > 200 µM | > 200 µM | 
O=C(CSc1nnc(Cc2ccccc2)o1)Nc1ccc(Cl)cc1 | > 100 µM | 72.4 µM | 
CC1=NN(C(=O)CC(=O)Nc2ccc(Cl)cc2)C(=O)C1N=Nc1ccc(S(=O)(=O)c2ccc(N=NC3C(=O)N(C(=O)CC(=O)Nc4ccc(Cl)cc4)N=C3C)cc2)cc1 (centres undefined) | > 50.1 µM | > 50.1 µM | 
C[Si](C)(C)O[C@@H]1CCCC1NCC#N (some centres undefined) |  |  | inactive
C(=C\C(Sc1ccccc1)c1ccccc1)/NNC1=NC(c2ccccc2)C(c2ccccc2)=NN1 (centres undefined) | > 14.8 µM | > 14.8 µM | 
Cc1ccc([PH+](CC[PH+](c2ccccc2)c2ccccc2)c2ccc(C)cc2)cc1.Cc1ccc([PH+](CC[PH+](c2ccccc2)c2ccccc2)c2ccc(C)cc2)cc1.[Pt] | > 6.92 µM | 3.8 µM | 
O=C(c1ccc(Cl)cc1)c1cc2c([nH]c1=O)CCCCC2 |  |  | inactive
CC(c1ccccc1)[P+](c1ccccc1)(c1ccccc1)c1ccccc1 (centres undefined) | > 200 µM | 1.32 µM | 
COc1cccc(C2=CCCCCC2)c1OC | > 200 µM | 79.4 µM | 
O=[N+]([O-])c1nccn1CC(O)c1ccc(F)cc1 (centres undefined) | > 1000 µM | > 1000 µM | 

SMILES | EC50 | IC50 | outcome
CCOC(=O)/C(=C\c1cccc([N+](=O)[O-])c1)C(C)=O |  |  | inactive
CCOC(=O)C1(C(=O)OCC)CSC1 | > 309 µM | > 309 µM | 
Fc1ccc(C2SCc3nc4ccccc4n32)cc1 (centres undefined) |  |  | inactive
COc1cccc2cc(C(=O)Nc3ccccc3)c(=N)oc12 | > 200 µM | > 200 µM | 
COC(=O)c1cc2c3c(c1)Oc1cc(C(=O)OC)cc4c1C3c1c(cc(C(=O)OC)cc1O4)O2 | > 200 µM | 55 µM | 
C=C1c2ccccc2N(S(=O)(=O)c2ccc(C)cc2)C12CCCCC2 | > 100 µM | 38 µM | 
O=C(O)CCC1COc2ccccc2O1 (centres undefined) | > 200 µM | > 200 µM | 
COC(=O)[C@@H]1Cc2c([nH]c3ccccc23)[C@H](c2ccccc2)N1 |  |  | inactive
Cc1cc2c(c(C(=O)NCCC(=O)N[C@@H](C)C(=O)OCc3ccccc3)c1)Oc1c(cc(C)cc1C(=O)NCCC(=O)N[C@@H](C)C(=O)OCc1ccccc1)S2 | > 200 µM | > 200 µM | 
Cc1cccc(CP(Cc2cccc(C)c2)CC2(Cp3c4ccccc4c4ccccc43)COC2)c1 | > 2 µM | 0.257 µM | 
COC(=O)[C@@H]1[C@H]2[C@H](OC(=O)c3ccccc3)CCN2C(=O)[C@H]1O | > 200 µM | 75.9 µM | 
CC(=O)c1cccc(NC(=O)C(=O)NNc2n[nH]c(=S)n2N)c1 | > 282 µM | 6.76 µM | 
CCCCCCCCC#CCCCCCCC(F)C(=O)O (centres undefined) |  |  | inactive
O=C(O)C(C(F)(F)F)C(F)(F)F (tested in a mixture with another compound) | > 200 µM | > 200 µM | 
CC(=O)Nc1c2sscc-2n(C)c1=O | > 16.6 µM | 0.891 µM | 
N=C(N)SCCNC[C@@H](O)[C@@H](O)CNCCSC(=N)N | > 537 µM | 437 µM | 
CCP(=O)(CC)C(Cl)Cl | > 200 µM | > 200 µM | 
O=C(CNC(=O)c1ccccc1)NC(CSCc1ccccc1)C(=O)O (centres undefined) (Bz-Gly-[ξC](Bn)-OH) | > 676 µM | 550 µM | 
NC1CC(=O)c2cc(Cl)sc21 (centres undefined) | > 200 µM | > 200 µM | 
[O]=[W](=[O])([OH])[OH] |  |  | inactive
O=c1[nH]c(=O)n(C2CC(O)C(CO)O2)cc1OC/C=C/Cc1ccccc1 (centres undefined) | > 200 µM | > 200 µM | 
O=c1cc(CCl)nc2c3ncn(C4OC(CO)C(O)C4O)c3ncn12 (centres undefined) |  |  | inactive

Source: PubChem BioAssay AID179 (DTP/NCI, 2004)
